Source: US20240228535A1 (priority 2022, published 2024)

Target: SARS2 coronavirus 3CL protease (Severe acute respiratory syndrome coronavirus 2, UniProt P0DTD1)
Experiment: biochemical
Details: 5 nM enzyme, 30 min pre-incubation with compound, 15 μM peptide substrate, 4 h at room temperature; read-out: FRET Potency (nM); IC50 values in the SARS2 3CLPro FRET assay

For `CC(C)C(=O)Nc1ccc(Cl)cc1C(=O)N[C@@H](C[C@@H]1C[C@@H](C)NC1=O)C(=O)C(=O)NC1CC1` [Example 147, 5-chloro-N-[(1S)-3-(cyclopropylamino)-1-[[(3S,5R)-5-methyl-2-oxo-pyrrolidin-3-yl]methyl]-2,3-dioxo-propyl]-2-(2-methylpropanoylamino) benzamide], the IC50 was 11.6 nM.

`C[C@@H]1C[C@@H](C[C@H](NC(=O)c2cc(C(F)F)ccc2NC(=O)c2ccnc(C(F)(F)F)c2)C(=O)C(=O)NC2CC2)C(=O)N1` [Example 232, N-[2-[[(1S)-3-(cyclopropylamino)-1-[[(3S,5R)-5-methyl-2-oxo-pyrrolidin-3-yl]methyl]-2,3-dioxo-propyl]carbamoyl]-4-(difluoromethyl)phenyl]-2-(trifluoromethyl)pyridine-4-carboxamide] showed an IC50 of 10.4 nM.

`CNC(=O)C(=O)[C@H](C[C@@H]1C[C@@H](C)NC1=O)NC(=O)c1cc(Cl)ccc1NC(=O)C(C)c1cscn1` (stereo partly drawn) [Example 195, 5-chloro-N-[(1S)-3-(methylamino)-1-[[(3S,5R)-5-methyl-2-oxo-pyrrolidin-3-yl]methyl]-2,3-dioxo-propyl]-2-(2-thiazol-4-ylpropanoylamino)benzamide] gave an IC50 of 3.1 nM.

For `CNC(=O)C(=O)[C@H](C[C@@H]1C[C@@H](C)NC1=O)NC(=O)c1cc(C(F)F)ccc1NC(=O)c1cccc(C(F)(F)F)c1` [Example 70, 5-(difluoromethyl)-N-[(1S)-3-(methylamino)-1-[[(3S,5R)-5-methyl-2-oxo-pyrrolidin-3-yl]methyl]-2,3-dioxo-propyl]-2-[[3-(trifluoromethyl)benzoyl]amino]benzamide], the IC50 was 6.9 nM.

For `COC(=O)Nc1ccc(Cl)cc1C(=O)N[C@@H](C[C@@H]1C[C@@H](C)NC1=O)C(=O)C(N)=O` [Example 107, methyl N-[2-[[(1S)-3-amino-1-[[(3S,5R)-5-methyl-2-oxo-pyrrolidin-3-yl]methyl]-2,3-dioxo-propyl]carbamoyl]-4-chloro-phenyl]carbamate], the IC50 was 12.6 nM.

For `CNC(=O)C(=O)[C@H](C[C@@H]1C[C@@H](C)NC1=O)NC(=O)c1cc(Cl)ccc1NC(=O)OCC1CCCC(F)(F)C1` (stereo partly drawn) [Example 219, (3,3-difluorocyclohexyl)methyl N-[4-chloro-2-[[(1S)-3-(methylamino)-1-[(3S,5R)-5-methyl-2-oxo-pyrrolidin-3-yl]methyl]-2,3-dioxo-propyl]carbamoyl]phenyl] carbamate], the IC50 was 7.1 nM.

In the case of `O=C(CCC(F)(F)F)Nc1ccc(Cl)cc1C(=O)N[C@@H](C[C@@H]1C[C@@H](C(F)(F)F)NC1=O)C(=O)C(=O)NC1CC1` [Example 68, 5-chloro-N-[(1S)-3-(cyclopropylamino)-2,3-dioxo-1-[[(3R,5S)-2-oxo-5-(trifluoromethyl)pyrrolidin-3-yl]methyl]propyl]-2-(4,4,4-trifluorobutanoylamino) benzamide], the IC50 is reported as 7 nM.

In the case of `CNC(=O)C(=O)[C@H](C[C@@H]1C[C@@H](C)NC1=O)NC(=O)c1cc(Cl)ccc1NC(=O)OC1CC(F)(F)C1` [Example 188, (3,3-difluorocyclobutyl) N-[4-chloro-2-[(1S)-3-(methylamino)-1-[[(3S,5R)-5-methyl-2-oxo-pyrrolidin-3-yl]methyl]-2,3-dioxo-propyl]carbamoyl]phenyl] carbamate], the IC50 is reported as 7.2 nM.

Molecule `CNC(=O)C(=O)[C@H](C[C@@H]1C[C@@H](C)NC1=O)NC(=O)c1cc(Cl)ccc1NC(=O)c1cc(C(F)(F)F)ccn1` [Example 72, N-[4-chloro-2-[[(1S)-3-(methylamino)-1-[[(3S,5R)-5-methyl-2-oxo-pyrrolidin-3-yl]methyl]-2,3-dioxo-propyl]carbamoyl]phenyl]-4-(trifluoromethyl)pyridine-2-carboxamide] has an IC50 of 6.3 nM.

`C[C@@H]1C[C@@H](C[C@H](NC(=O)c2cc(C#N)ccc2NC(=O)c2cccc(C(F)(F)F)c2)C(=O)C(=O)NC2CC2)C(=O)N1` [Example 61, 5-cyano-N-[(1S)-3-(cyclopropylamino)-1-[[(3S,5R)-5-methyl-2-oxo-pyrrolidin-3-yl]methyl]-2,3-dioxo-propyl]-2-[[3-(trifluoromethyl)benzoyl]amino]benzamide] was tested, and the IC50 was 7.7 nM.

Molecule `[2H]C([2H])([2H])OC(=O)Nc1ccc(Cl)cc1C(=O)N[C@@H](C[C@@H]1C[C@@H](C)NC1=O)C(=O)C(=O)NC` [Example 112, trideuteriomethyl N-[4-chloro-2-[[(1S)-3-(methylamino)-1-[[(3S,5R)-5-methyl-2-oxo-pyrrolidin-3-yl]methyl]-2,3-dioxo-propyl]carbamoyl]phenyl] carbamate] has an IC50 of 6 nM.

Work on `CNC(=O)C(=O)[C@H](C[C@@H]1C[C@@H](C)NC1=O)NC(=O)c1cc(Cl)ccc1NC(=O)C(C)C(F)(F)F` (stereo partly drawn) [Example 24, 5-chloro-N-[(1S)-3-(methylamino)-1-[[(3S,5R)-5-methyl-2-oxo-pyrrolidin-3-yl]methyl]-2,3-dioxo-propyl]-2-[(3,3,3-trifluoro-2-methyl-propanoyl)amino]benzamide] yielded an IC50 of 18.6 nM.

Work on `CNC(=O)C(=O)[C@H](C[C@@H]1CCNC1=O)NC(=O)c1cc(Cl)ccc1NC(=O)C12CC(F)(C1)C2` [Example 47] yielded an IC50 of 8.8 nM.

In the case of `C[C@@H]1C[C@@H](C[C@H](NC(=O)c2cc(Cl)cnc2NC(=O)CCC(F)(F)F)C(=O)C(=O)NC2CC2)C(=O)N1` [Example 52, 5-chloro-N-[(1S)-3-(cyclopropylamino)-1-[[(3S,5R)-5-methyl-2-oxo-pyrrolidin-3-yl]methyl]-2,3-dioxo-propyl]-2-(4,4,4-trifluorobutanoylamino) pyridine-3-carboxamide], the IC50 is reported as 8.4 nM.

`C[C@@H]1C[C@@H](C[C@H](NC(=O)c2cc(Cl)ccc2NC(=O)c2ccn(CC(F)(F)F)n2)C(=O)C(=O)NC2CC2)C(=O)N1` [Example 100, N-[4-chloro-2-[[(1S)-3-(cyclopropylamino)-1-[[(3S,5R)-5-methyl-2-oxo-pyrrolidin-3-yl]methyl]-2,3-dioxo-propyl]carbamoyl]phenyl]-1-(2,2,2-trifluoroethyl)pyrazole-3-carboxamide] was tested, and the IC50 was 5.9 nM.

For `CNC(=O)C(=O)[C@H](C[C@@H]1C[C@@H](C)NC1=O)NC(=O)c1cc(Cl)ccc1NC(=O)C1CC1C(F)(F)F` (stereo partly drawn) [Example 190, 5-chloro-N-[(1S)-3-(methylamino)-1-[[(3S,5R)-5-methyl-2-oxo-pyrrolidin-3-yl]methyl]-2,3-dioxo-propyl]-2-[[2-(trifluoromethyl)cyclopropane-carbonyl]amino]benzamide], the IC50 was 3.1 nM.

`C[C@@H]1C[C@@H](C[C@H](NC(=O)c2cc(F)cnc2NC(=O)C2CC(F)(F)C2)C(=O)C(=O)NC2CC2)C(=O)N1` [Example 23, N-[(1S)-3-(cyclopropylamino)-1-[[(3S,5R)-5-methyl-2-oxo-pyrrolidin-3-yl]methyl]-2,3-dioxo-propyl]-2-[(3,3-difluorocyclobutanecarbonyl)amino]-5-fluoro-pyridine-3-carboxamide] showed an IC50 of 20.6 nM.

Molecule `O=C(CCC(F)(F)F)Nc1cc(F)c(Cl)cc1C(=O)N[C@@H](C[C@@H]1CCNC1=O)C(=O)C(=O)NC1CC1` [Example 56, 5-chloro-N-[(1S)-3-(cyclopropylamino)-2,3-dioxo-1-[[(3S)-2-oxopyrrolidin-3-yl]methyl]propyl]-4-fluoro-2-(4,4,4-trifluorobutanoylamino) benzamide] has an IC50 of 8.1 nM.

`CNC(=O)C(=O)C(CC1C[C@@H](C(F)(F)F)NC1=O)NC(=O)c1cc(C#N)ccc1NC(=O)CCC(F)(F)F` (stereo partly drawn) [Example 88, 5-cyano-N-[3-(methylamino)-2,3-dioxo-1-[[(5S)-2-oxo-5-(trifluoromethyl)pyrrolidin-3-yl]methyl]propyl]-2-(4,4,4-trifluorobutanoylamino) benzamide] gave an IC50 of 114 nM.

With `O=C(Nc1ccc(Cl)cc1C(=O)N[C@@H](C[C@@H]1CCNC1=O)C(=O)C(=O)NC1CC1)OC1CC1` [Example 146, cyclopropyl N-[4-chloro-2-[[(1S)-3-(cyclopropylamino)-2,3-dioxo-1-[[(3S)-2-oxopyrrolidin-3-yl]methyl]propyl]carbamoyl]phenyl]carbamate] the IC50 was 3.9 nM.

Work on `C[C@@H]1C[C@@H](C[C@H](NC(=O)c2cc(F)c(F)cc2NC(=O)c2ccnc(C(F)(F)F)c2)C(=O)C(=O)NC2CC2)C(=O)N1` [Example 49, N-[2-[[(1S)-3-(cyclopropylamino)-1-[[(3S,5R)-5-methyl-2-oxo-pyrrolidin-3-yl]methyl]-2,3-dioxo-propyl]carbamoyl]-4,5-difluoro-phenyl]-2-(trifluoromethyl)pyridine-4-carboxamide] yielded an IC50 of 8.8 nM.

Work on `CNC(=O)C(=O)[C@H](C[C@@H]1C[C@@H](C)NC1=O)NC(=O)c1cc(Cl)ccc1NC(=O)C1CC1` [Example 122] yielded an IC50 of 8.1 nM.

Molecule `C[C@@H]1C[C@@H](C[C@H](NC(=O)c2cc(Cl)cnc2NC(=O)C23CC(F)(C2)C3)C(=O)C(=O)NC2CC2)C(=O)N1` [Example 27, 5-chloro-N-[(1S)-3-(cyclopropylamino)-1-[[(3S,5R)-5-methyl-2-oxo-pyrrolidin-3-yl]methyl]-2,3-dioxo-propyl]-2-[(3-fluorobicyclo[1.1.1]pentane-1-carbonyl)amino]pyridine-3-carboxamide] has an IC50 of 13.6 nM.

With `CNC(=O)C(=O)[C@H](C[C@@H]1C[C@@H](C)NC1=O)NC(=O)c1cc(Cl)ccc1NC(=O)c1cnc(C(F)(F)F)nc1` [Example 215, N-[4-chloro-2-[[(1S)-3-(methylamino)-1-[[(3S,5R)-5-methyl-2-oxo-pyrrolidin-3-yl]methyl]-2,3-dioxo-propyl]carbamoyl]phenyl]-2-(trifluoromethyl)pyrimidine-5-carboxamide] the IC50 was 10.1 nM.

Work on `CNC(=O)C(=O)[C@H](C[C@@H]1C[C@@H](C)NC1=O)NC(=O)c1cc(Cl)ccc1NC(=O)C1CCC(F)(F)CC1` [Example 197] yielded an IC50 of 9.4 nM.

In the case of `C[C@@H]1C[C@@H](C[C@H](NC(=O)c2cc(Cl)ccc2NC(=O)C2(CC(F)(F)F)CC2)C(=O)C(=O)NC2CC2)C(=O)N1` [Example 62], the IC50 is reported as 7.6 nM.

`CNC(=O)C(=O)[C@H](C[C@@H]1C[C@@H](C)NC1=O)NC(=O)c1cc(Cl)ccc1NC(=O)OC` [Example 9, methyl (4-chloro-2-(((S)-1-((3S,5R)-5-methyl-2-oxopyrrolidin-3-yl)-4-(methylamino)-3,4-dioxobutan-2-yl)carbamoyl)phenyl)carbamate] was tested, and the IC50 was 7.3 nM.
